US20250215029A1 (Recludix Pharma, Inc., priority 2022, published 2025)
Read-outs that look alike come from different tables or passages of the source.

Experiments:
pY705-STAT3 in PBMC = target: T1, pY705-STAT3 in PBMC (Homo sapiens, UniProt P40763); assay: MSD-pSTAT-PBMC Assay (pSTAT3, IL-6 stimulated); assay type: cell-based; conditions: compound 3 hrs, then 10 ng/mL IL-6 for 10 min
T1 construct: Cryopreserved Peripheral Blood Mononuclear Cells (PBMC) are from AllCells; host or cells: cryopreserved PBMC
T1 sequence (P40763 whole entry): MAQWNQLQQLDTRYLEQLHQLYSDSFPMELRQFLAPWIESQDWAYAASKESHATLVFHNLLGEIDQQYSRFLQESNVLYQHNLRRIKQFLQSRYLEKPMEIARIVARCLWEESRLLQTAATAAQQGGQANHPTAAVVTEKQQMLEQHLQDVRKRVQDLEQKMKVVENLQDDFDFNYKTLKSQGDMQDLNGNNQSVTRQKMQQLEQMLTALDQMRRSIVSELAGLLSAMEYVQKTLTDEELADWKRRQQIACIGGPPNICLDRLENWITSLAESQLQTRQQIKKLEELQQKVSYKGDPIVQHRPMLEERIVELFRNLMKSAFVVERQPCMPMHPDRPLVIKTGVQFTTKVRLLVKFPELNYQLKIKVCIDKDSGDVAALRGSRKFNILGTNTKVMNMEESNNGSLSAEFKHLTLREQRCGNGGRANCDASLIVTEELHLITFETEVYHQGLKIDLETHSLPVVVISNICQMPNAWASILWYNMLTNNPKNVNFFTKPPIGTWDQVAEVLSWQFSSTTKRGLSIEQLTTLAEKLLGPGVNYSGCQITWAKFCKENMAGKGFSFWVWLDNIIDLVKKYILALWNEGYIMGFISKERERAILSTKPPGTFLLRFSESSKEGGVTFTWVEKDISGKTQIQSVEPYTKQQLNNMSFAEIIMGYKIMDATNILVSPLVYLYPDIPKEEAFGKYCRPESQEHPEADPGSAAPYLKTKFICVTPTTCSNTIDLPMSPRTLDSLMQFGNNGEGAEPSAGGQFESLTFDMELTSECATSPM
Procedure, shortened: (§1)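 Thawed human PBMC rested overnight in IMDM/10% FBS, then got compound for 3 hrs before a 10 min cytokine pulse: 1 ng/mL IL-4 for pSTAT6, 10 ng/mL IL-6 for pSTAT3. Lysates went to MSD sandwich capture on total STAT6 or STAT3 with phospho-specific detection. IC50 came from background-subtracted, DMSO-normalized signal.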

pY641-STAT6 in PBMC = target: T2, pY641-STAT6 in PBMC (Homo sapiens, UniProt P42226); assay: MSD-pSTAT-PBMC Assay (pSTAT6, IL-4 stimulated); assay type: cell-based; conditions: compound 3 hrs, then 1 ng/mL IL-4 for 10 min
T2 construct: Cryopreserved Peripheral Blood Mononuclear Cells (PBMC) are from AllCells; host or cells: cryopreserved PBMC
T2 sequence (P42226 1-847): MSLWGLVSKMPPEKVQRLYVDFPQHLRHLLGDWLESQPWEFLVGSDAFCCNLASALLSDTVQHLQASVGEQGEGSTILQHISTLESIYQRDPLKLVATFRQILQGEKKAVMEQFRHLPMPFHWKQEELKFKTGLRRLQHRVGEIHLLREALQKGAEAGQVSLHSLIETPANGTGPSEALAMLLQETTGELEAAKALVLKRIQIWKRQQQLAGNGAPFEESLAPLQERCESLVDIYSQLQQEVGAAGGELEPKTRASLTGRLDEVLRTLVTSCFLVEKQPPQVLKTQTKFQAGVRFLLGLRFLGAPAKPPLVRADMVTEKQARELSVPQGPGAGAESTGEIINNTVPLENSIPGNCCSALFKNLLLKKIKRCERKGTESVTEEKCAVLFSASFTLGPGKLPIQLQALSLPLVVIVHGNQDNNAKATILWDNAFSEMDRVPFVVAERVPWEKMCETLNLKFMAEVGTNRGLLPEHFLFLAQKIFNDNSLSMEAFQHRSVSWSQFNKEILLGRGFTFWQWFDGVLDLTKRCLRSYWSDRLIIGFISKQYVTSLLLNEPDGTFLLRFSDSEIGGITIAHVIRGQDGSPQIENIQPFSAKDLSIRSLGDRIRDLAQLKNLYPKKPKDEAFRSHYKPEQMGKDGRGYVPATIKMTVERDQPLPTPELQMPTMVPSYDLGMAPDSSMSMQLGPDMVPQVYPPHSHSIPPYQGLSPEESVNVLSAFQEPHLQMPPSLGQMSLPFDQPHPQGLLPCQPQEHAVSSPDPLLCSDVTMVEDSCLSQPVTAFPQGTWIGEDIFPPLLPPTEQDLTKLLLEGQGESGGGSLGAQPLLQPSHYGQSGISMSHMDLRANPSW
Procedure, shortened: as §1

[1] = PBMC, Table 1114, read-out: pSTAT3
[2] = PBMC, Table 1114, read-out: pSTAT6
[3] = PBMC, Table 115, read-out: STAT3

| IC50 (pY705-STAT3 in PBMC; [1]) [µM] | IC50 (pY641-STAT6 in PBMC; [2]) [µM] | Structure (SMILES) | also measured |
| --- | --- | --- | --- |
| < 0.1 | 1 to 3 | CC(C)(C)C(=O)OCOP(=O)(OCOC(=O)C(C)(C)C)C(F)(F)c1ccc2sc(C(=O)N[C@H]3CCC[C@H]4CC[C@@H](C(=O)N5CC(C(=O)N6CCOCC6)C5)N4C3=O)cc2c1 [Compound 187, (((difluoro(2-(((3S,6S,9aS)-3-(3-(morpholine-4-carbonyl)azetidine-1-carbonyl)-5-oxooctahydro-1H-pyrrolo[1,2-a]azepin-6-yl)carbamoyl)benzo[b]thiophen-5-yl)methyl)phosphoryl)bis (oxy))bis (methylene) bis(2,2-dimethyl-propanoate)] |  |
| 0.1 to 1 | < 0.1 | CC(C)(C)C(=O)OCOP(=O)(OCOC(=O)C(C)(C)C)C(F)(F)c1ccc2sc(C(=O)N[C@H]3CCCC[C@H]4CC[C@@H](C(=O)N5CC(C#N)C(c6cc[nH]c(=O)c6)C5)N4C3=O)cc2c1 (mixture of isomers) [Compound 147, ((((2-(((3S,6S,10aS)-3-(rel-trans)-3-cyano-4-(2-oxo-1,2-dihydro-pyridin-4-yl)pyrrolidine-1-carbonyl)-5-oxodecahydro-pyrrolo[1,2-a]azocin-6-yl)carbamoyl)benzo[b]thiophen-5-yl)difluoromethyl)phosphoryl)bis (oxy))bis (methylene) bis(2,2-dimethylpropanoate)] |  |
|  |  | CC(C)CC(=O)SCCOP(=O)(Oc1cccc(C#N)c1)C(F)(F)c1ccc2sc(C(=O)N[C@H]3CCC[C@H]4CC[C@@H](C(=O)N5CC(c6cccnc6)C5)N4C3=O)cc2c1 (stereo partly drawn) [Compound 1008, S-(2-(((3-cyanophenoxy) (difluoro(2-(((3S,6S,9aS)-5-oxo-3-(3-(pyridin-3-yl)azetidine-1-carbonyl)octahydro-1H-pyrrolo[1,2-a]azepin-6-yl)carbamoyl)benzo [b]thiophen-5-yl)methyl)phosphoryl)oxy)ethyl) 3-methylbutanethioate] | IC50 (pY705-STAT3 in PBMC; [3]): 0.1 to 1 µM; IC50 (pY641-STAT6 in PBMC; STAT6, PBMC, Table 115): > 3 µM |
|  |  | CCCC(=O)SCCOP(=O)(Oc1cccc2ccccc12)C(F)(F)c1ccc2sc(C(=O)N[C@H]3CCC[C@H]4CC[C@@H](C(=O)N5CC(c6cccnc6)C5)N4C3=O)cc2c1 (stereo partly drawn) [Compound 140, S-(2-(((difluoro(2-(((3S,6S,9aS)-5-oxo-3-(3-(pyridin-3-yl)azetidine-1-carbonyl)octahydro-1H-pyrrolo[1,2-a]azepin-6-yl)carbamoyl)benzo[b]thiophen-5-yl)methyl) (naphthalen-1-yloxy)phosphoryl)oxy)ethyl) butanethioate] | IC50 (pY705-STAT3 in PBMC; pSTAT3, PBMC, Table 1114): < 0.1 µM; IC50 (pY641-STAT6 in PBMC; pSTAT6, PBMC, Table 1114): 1 to 3 µM |
| < 0.1 | > 3 | CC(C)(C)C(=O)SCCOP(=O)(OCCSC(=O)C(C)(C)C)C(F)(F)c1ccc2sc(C(=O)N[C@H]3CCCC[C@H]4CC[C@@H](C(=O)N5CC(c6cccnc6)C5)N4C3=O)cc2c1 [Compound 181, S,S′-((((difluoro(2-(((3S,6S,10aS)-5-oxo-3-(3-(pyridin-3-yl)azetidine-1-carbonyl)decahydro-pyrrolo[1,2-a]azocin-6-yl)carbamoyl)benzo[b]thiophen-5-yl)methyl)phosphoryl)bis(oxy))bis(ethane-2,1-diyl)) bis(2,2-dimethylpropanethioate)] |  |
| > 3 | 0.1 to 1 | CC(C)CC(=O)SCCOP(=O)(OCCSC(=O)CC(C)C)C(F)(F)c1ccc2sc(C(=O)N[C@H]3C[C@@H](O)CC[C@H]4CC[C@@H](C(=O)N5C[C@@H](C#N)[C@H](c6ccccc6)C5)N4C3=O)cc2c1 (single isomer, unassigned) [Compound 135, S,S′-(((((2-(((3S,6S,8S,10aR)-3-((3S,4R or 3R,4S)-3-cyano-4-phenylpyrrolidine-1-carbonyl)-8-hydroxy-5-oxodecahydro-pyrrolo[1,2-a]azocin-6-yl)carbamoyl)benzo[b]thiophen-5-yl)difluoromethyl)phosphoryl)bis(oxy))bis (ethane-2,1-diyl)) bis(3-methylbutane-thioate)] |  |
|  |  | CCCOC(=O)[C@H](C)NP(=O)(Oc1ccccc1)C(F)c1ccc2sc(C(=O)N[C@H]3CCCC[C@H]4CC[C@@H](C(=O)N5C[C@@H](C#N)[C@H](c6ccccc6)C5)N4C3=O)cc2c1 (single isomer, unassigned) [Compound 315] | IC50 (pY705-STAT3 in PBMC; [3]): > 3 µM; IC50 (pY641-STAT6 in PBMC; STAT6, PBMC, Table 115): < 0.1 µM |
